Drawing on US20220056052A1, “QUINAZOLINE DERIVATIVES AS ECTONUCLEOTIDE PYROPHOSPHATASE PHOSPHODIESTERASE 1 INHIBITORS” (Riboscience LLC, priority 2018, published 2022), this text covers tumor size and Ki for 18 molecules.

Test [1] deals with HGS tumor model. In words: Anti-tumor activity in HGS tumor model. The class given is in vivo. To be noted: animals treated with 20/kg of compound, day 42 after inoculation (vehicle 645).
Excerpt: […]

Test [2] has as its target T1, ENPP1 (Homo sapiens, UniProt P22413).
T1 sequence (P22413 1-925): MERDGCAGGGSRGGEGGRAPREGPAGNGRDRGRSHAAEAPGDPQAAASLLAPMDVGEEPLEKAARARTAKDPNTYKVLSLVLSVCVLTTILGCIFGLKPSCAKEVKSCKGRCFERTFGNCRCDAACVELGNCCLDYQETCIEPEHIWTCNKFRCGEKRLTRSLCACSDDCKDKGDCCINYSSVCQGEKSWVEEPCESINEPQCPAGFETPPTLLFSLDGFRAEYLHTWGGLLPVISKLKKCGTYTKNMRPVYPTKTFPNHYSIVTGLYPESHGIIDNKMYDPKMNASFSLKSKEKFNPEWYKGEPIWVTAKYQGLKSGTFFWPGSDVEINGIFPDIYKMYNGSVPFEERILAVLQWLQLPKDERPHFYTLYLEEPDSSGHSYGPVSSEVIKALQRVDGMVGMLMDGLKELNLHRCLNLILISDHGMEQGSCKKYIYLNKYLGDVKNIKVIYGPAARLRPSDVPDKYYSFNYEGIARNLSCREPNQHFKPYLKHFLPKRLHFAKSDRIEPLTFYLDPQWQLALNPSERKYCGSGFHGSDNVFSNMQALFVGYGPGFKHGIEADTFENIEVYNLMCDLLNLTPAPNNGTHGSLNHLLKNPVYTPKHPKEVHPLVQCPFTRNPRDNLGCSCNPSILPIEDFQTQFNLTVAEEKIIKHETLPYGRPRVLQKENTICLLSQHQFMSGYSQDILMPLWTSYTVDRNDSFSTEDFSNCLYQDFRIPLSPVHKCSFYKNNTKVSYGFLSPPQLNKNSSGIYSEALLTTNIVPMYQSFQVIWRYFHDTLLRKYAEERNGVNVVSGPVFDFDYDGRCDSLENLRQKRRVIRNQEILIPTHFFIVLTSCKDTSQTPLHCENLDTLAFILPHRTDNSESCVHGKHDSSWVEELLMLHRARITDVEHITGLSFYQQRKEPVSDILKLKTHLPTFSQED
In words: Measurement of 2′3′-cGAMP hydrolysis by ENPP1 (AMP-Glo).
Procedure: Then, 15 μl of the ENPP1/Compound incubation was transferred to the 200 μM 2′3′-cGAMP solution to initiate the reaction. The 30 μl mixture was incubated for 30 min at 25° C. […] After 30 min the reaction was stopped by heating at 90° C. for 3 min.
Third, now the Promega AMP-Glo kit was used to detect 5′-AMP production as a measurement of ENPP1 enzyme activity. To do this, 10 μl of the above mentioned 30 μl total reaction per sample was transferred into 384 well white solid assay plate for measurement of 5′-AMP production. For each well, 10 μl of AMP-Glo Reagent I was added, mixed well, and incubated for 1 hour at 25° C. At this time AMP detection solution was prepared and 20 μl was added per well, and the resulting solution was incubated for 1 hr at 25° C. Duplicates were run for each inhibitor concentration. Luminescence signal (relative luminescence units, RLU) was recorded using a PerkinElmer 2300 Enspire multimode plate reader.
IC50 values of compounds were determined by loading compound concentration data and percent inhibition values into GraphPad Prism (GraphPad Prism version 7.0 for Windows, GraphPad Software, La Jolla Calif. USA, www.graphpad.com) and conducted a Sigmoidal variable slope nonlinear regression fitting.

Test [3] deals with T1, ENPP1. The test is described as follows: Measurement of pNP-TMP hydrolysis by ENPP1. In kind it is biochemical. To be noted: substrate pNP-TMP, (S) 500 μM, KM 232 μM; Ki from IC50 by Cheng-Prusoff. Here is the method: p-Nitrophenyl thymidine 5′-monophosphate (pNP-TMP) is a synthesized substrate for ENPP1. The ENPP1 enzyme activity assay with pNP-TMP substrate was conducted as follows:
Incubation of ENPP1 with compounds was set at 25° C. for 10 min.
Absorbance at 405 nm was recorded immediately in kinetic mode by PerkinElmer 2300 Enspire multimode plate reader.
For each inhibitor, the specific ENPP1 activity was calculated using the following equation: ENPP1 activity (pmol/min/μg)=Adjusted Vmax (OD405 nm/min)×conversion factor (pmol/OD405 nm)/amount of enzyme (μg)
Adjusted Vmax=V0×(Km+(S))/(S). […] V0=(OD405 nm with ENPP1−OD405 nm ENPP1 blank)/minutes. OD405 nm was plotted, with blank subtracted, against time (minutes), the initial linear rate is V0. […]
The slope is the conversion factor. The percent ENPP1 activity for each sample was calculated using the following equation:
% enzyme activity=sample enzyme activity/MAX Activity×100%.
To determine the IC50 for each compound, compound concentration values and percent enzyme activity values were inserted into GraphPad Prism (GraphPad Prism version 7.0 for Windows, GraphPad Software, La Jolla Calif. USA, www.graphpad.com), and Prism's Transform analysis was used to convert the x-axis values (compound concentration) to logarithms. A sigmoidal variable slope nonlinear regression analysis was performed using the following equation: Y=Bottom+(Top−Bottom)/(1+10^((Log IC50^−X)*HillSlope)).

Counter-ions that a name gives are not always drawn.

Molecule `C=CC(=O)N1CCN(CCCn2c(=O)c(-c3c(Cl)c(OC)cc(OC)c3Cl)cc3cnc(NC)nc32)CC1` [8-(3-(4-acryloylpiperazin-1-yl)propyl)-6-(2,6-dichloro-3,5-dimethoxyphenyl)-2-(methylamino)pyrido(2,3-d)pyrimidin-7(8H)-one] yielded a tumor size in test [1] of 55 mm3. Usually Ki stands for a dissociation constant, usually derived from enzyme kinetics or from competition with a known ligand. Read a high Ki as weaker binding. As for `COc1cc2ncnc(N3CCC(CCCB(O)O)CC3)c2cc1OC` [Cpd. 3, (3-(1-(6,7-dimethoxyquinazolin-4-yl)piperidin-4-yl)propyl)boronic acid], the Ki in test [2] was below 1 nM. Same read-out and setting: the figure for `COc1cc2ncnc(N3CCC(CP(=O)(O)O)CC3)c2cc1OC` [Cpd. 4, ((1-(6,7-dimethoxyquinazolin-4-yl)piperidin-4-yl)methyl)phosphonic acid] is below 5 nM. `COc1cc2ncnc(NCc3ccc(B(O)O)cc3)c2cc1OC` [Cpd. 7, (4-(((6,7-dimethoxyquinazolin-4-yl)amino)methyl)phenyl)boronic acid formic acid salt]: the Ki in test [3] was below 10 nM; in test [2], below 1 nM. With `COc1cc2ncnc(-c3ccc(COS(N)(=O)=O)cc3)c2cc1OC` [Cpd. 17, 4-(6,7-dimethoxyquinazolin-4-yl)benzyl sulfamate], in test [3], the Ki is below 1 nM. As for `COc1cc2ncnc(N3CCC(CCCP(=O)(O)O)CC3)c2cc1OC` [compound 6, (3-(1-(6,7-dimethoxyquinazolin-4-yl)piperidin-4-yl)propyl)phosphonic acid], the Ki in test [3] was below 5 nM; in test [2] it was below 1 nM. In test [2], `COc1cc2ncnc(NCc3ccc(B(O)O)cn3)c2cc1OC` [compound 8, (6-(((6,7-dimethoxyquinazolin-4-yl)amino)methyl)pyridin-3-yl)boronic acid] displayed a Ki below 10 nM.

`COc1cc2ncnc(Nc3ccc4c(c3)COB4O)c2cc1OC` [compound 10, 5-((6,7-dimethoxyquinazolin-4-yl)amino)-1,3-dihydro-2,1-benzoxaborol-1-ol]: in test [2], the Ki is below 10 nM. Consider `COc1cc2ncnc(NCc3ccc(B(O)O)cc3F)c2cc1OC` [compound 11, 4-(((6,7-dimethoxyquinazolin-4-yl)amino)methyl)-3-fluorophenylboronic acid formic acid salt], for which the Ki in test [3] was below 10 nM. Regarding `COc1cc2ncnc(NCc3cccc(B(O)O)c3)c2cc1OC` [compound 12, (3-(((6,7-dimethoxyquinazolin-4-yl)amino)methyl)phenyl)boronic acid], the results for the Ki in test [3] and in test [2] were below 10 nM and below 1 nM, respectively. In test [2], `COc1cc2ncnc(NCc3ccc(P(=O)(O)O)cc3)c2cc1OC` [compound 13, (4-(((6,7-dimethoxyquinazolin-4-yl)amino)methyl)phenyl)phosphonic acid] yielded a Ki below 5 nM.

As to `COc1cc2ncnc(NCC3CCN(S(N)(=O)=O)CC3)c2cc1OC` [compound 18, 4-(((6,7-dimethoxyquinazolin-4-yl)amino)methyl)piperidine-1-sulfonamide], the Ki in test [2] was below 5 nM.

Take `COc1cc2ncnc(OCc3ccc(B(O)O)cc3)c2cc1OC` [compound 19, (4-(((6,7-dimethoxyquinazolin-4-yl)oxy)methyl)phenyl)boronic acid]: the Ki was below 5 nM in test [3] and below 1 nM in test [2]. As to `COc1cc2ncnc(OCc3ccc4c(c3)B(O)OC4)c2cc1OC` [compound 20, 6-(((6,7-dimethoxyquinazolin-4-yl)oxy)methyl)-3H-2,1-benzoxaborol-1-ol], the Ki in test [2] is below 5 nM.

As to `COc1cc2ncnc(OCc3ccc4c(c3)COB4O)c2cc1OC` [compound 21, 5-(((6,7-dimethoxyquinazolin-4-yl)oxy)methyl)-3H-2,1-benzoxaborol-1-lol], the Ki in test [2] was below 10 nM. On to `COc1cc2ncnc(NCc3c(F)cc(B(O)O)cc3F)c2cc1OC` [compound 24, 4-(((6,7-dimethoxyquinazolin-4-yl)amino)methyl)-3,5-difluorophenylboronic acid hydrochloride], for which, in test [3], the Ki was below 10 nM. `COc1ccc2c(NCc3ccc(B(O)O)cc3)ncnc2c1` [compound 30, 4-(((7-methoxyquinazolin-4-yl)amino)methyl)phenylboronic acid]: the Ki in test [3] was below 5 nM. Still for that read-out and setting: the figure for `COc1ccc2c(NCc3ccc(P(=O)(O)O)cc3)ncnc2c1` [compound 41, 4-(((7-methoxyquinazolin-4-yl)amino)methyl)phenylphosphonic acid formic acid salt] is below 5 nM.
